# Source: US11643388B2, “Inhibitors of alpha 2 beta 1 integrin and methods of use thereof” (The Regents of the University of California, priority 2020, dated 2023)
# Molecular target: α2β1 (Homo sapiens, UniProt P05556+P17301)
# Test: α2β1 cell adhesion
# Assay type: cell-based
# α2β1, sequence (P17301 30-1181): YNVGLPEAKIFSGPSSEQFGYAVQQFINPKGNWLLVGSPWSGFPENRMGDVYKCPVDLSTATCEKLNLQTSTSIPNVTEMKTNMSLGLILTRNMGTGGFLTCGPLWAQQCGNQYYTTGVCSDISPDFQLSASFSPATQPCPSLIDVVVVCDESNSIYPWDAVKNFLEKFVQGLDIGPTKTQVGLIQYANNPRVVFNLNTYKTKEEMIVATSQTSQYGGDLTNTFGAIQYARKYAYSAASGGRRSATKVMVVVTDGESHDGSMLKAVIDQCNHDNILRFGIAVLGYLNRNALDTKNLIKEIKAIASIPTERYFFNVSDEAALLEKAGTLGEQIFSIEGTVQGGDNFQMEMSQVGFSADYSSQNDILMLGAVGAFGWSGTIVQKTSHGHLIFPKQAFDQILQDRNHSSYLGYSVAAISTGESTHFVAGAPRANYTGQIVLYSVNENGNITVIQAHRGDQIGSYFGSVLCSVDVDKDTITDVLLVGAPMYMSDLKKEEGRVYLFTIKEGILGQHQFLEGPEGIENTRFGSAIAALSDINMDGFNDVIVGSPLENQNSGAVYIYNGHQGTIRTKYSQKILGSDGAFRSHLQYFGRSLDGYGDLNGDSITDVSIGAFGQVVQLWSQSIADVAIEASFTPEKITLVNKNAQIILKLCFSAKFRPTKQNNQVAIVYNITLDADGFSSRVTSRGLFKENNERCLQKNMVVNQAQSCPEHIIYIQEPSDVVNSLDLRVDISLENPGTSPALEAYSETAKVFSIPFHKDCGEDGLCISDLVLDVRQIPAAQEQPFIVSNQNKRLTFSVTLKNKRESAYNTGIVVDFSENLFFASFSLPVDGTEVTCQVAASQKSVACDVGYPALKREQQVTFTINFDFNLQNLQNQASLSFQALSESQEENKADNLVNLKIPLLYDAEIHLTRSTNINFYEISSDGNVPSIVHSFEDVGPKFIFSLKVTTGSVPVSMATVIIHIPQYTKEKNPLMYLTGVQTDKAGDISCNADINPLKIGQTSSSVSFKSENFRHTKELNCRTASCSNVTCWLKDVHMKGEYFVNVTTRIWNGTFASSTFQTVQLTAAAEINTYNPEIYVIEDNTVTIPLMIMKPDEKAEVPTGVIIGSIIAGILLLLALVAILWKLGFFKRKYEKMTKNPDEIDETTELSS
# α2β1, sequence (P05556 21-798): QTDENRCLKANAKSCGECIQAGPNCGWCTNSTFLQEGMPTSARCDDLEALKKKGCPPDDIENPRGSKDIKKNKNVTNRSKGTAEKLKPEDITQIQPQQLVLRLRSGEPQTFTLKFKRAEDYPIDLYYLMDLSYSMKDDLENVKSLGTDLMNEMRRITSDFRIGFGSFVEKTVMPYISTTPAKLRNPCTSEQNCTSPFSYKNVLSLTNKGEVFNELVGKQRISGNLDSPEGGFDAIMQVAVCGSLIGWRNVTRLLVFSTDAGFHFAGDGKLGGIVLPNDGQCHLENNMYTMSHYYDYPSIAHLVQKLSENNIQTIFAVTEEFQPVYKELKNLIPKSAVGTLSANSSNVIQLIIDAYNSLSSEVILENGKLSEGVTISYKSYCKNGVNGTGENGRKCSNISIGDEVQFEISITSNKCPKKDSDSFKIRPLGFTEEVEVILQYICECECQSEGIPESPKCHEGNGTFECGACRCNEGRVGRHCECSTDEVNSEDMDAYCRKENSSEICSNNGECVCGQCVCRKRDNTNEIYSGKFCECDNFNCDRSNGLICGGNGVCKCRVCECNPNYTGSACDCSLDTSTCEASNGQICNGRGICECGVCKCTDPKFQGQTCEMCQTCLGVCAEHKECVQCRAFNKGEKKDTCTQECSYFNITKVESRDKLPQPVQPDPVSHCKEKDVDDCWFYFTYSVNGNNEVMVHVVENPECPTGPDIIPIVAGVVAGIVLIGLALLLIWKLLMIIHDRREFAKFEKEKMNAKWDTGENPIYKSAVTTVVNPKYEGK
row,SMILES,IC50 [nM]
1,"O=C(Cc1cccc(Cl)c1)Nc1ccc(Cl)c(C(=O)N[C@@H](CNC(=O)NCc2ccccc2O)C(=O)O)c1Cl [SU15210-0159-01, (S)-2-(2,6-dichloro-3-(2-(3-chlorophenyl)acetamido)benzamido)-3-(3-(2-hydroxybenzyl)ureido)propanoic Acid]",< 500
2,"C[C@H](NC(=O)c1cc(Cl)c(C(=O)N[C@@H](CNC(=O)N[C@@H]2CCc3ccccc32)C(=O)O)c(Cl)c1)c1ccccc1 [SU15210-0224-01, (S)-2-(2,6-dichloro-4-((S)-1-phenylethylcarbamoyl)benzamido)-3-(3-((R)-2,3-dihydro-1H-inden-1-yl)ureido)propanoic Acid]",1000 to 5000
3,"O=C(NC[C@H](NC(=O)c1c(Cl)cc(-n2cnc(-c3ccccc3)c2)cc1Cl)C(=O)O)N[C@@H]1CCc2ccccc21 [SU15210-0192-01, (S)-2-(2,6-dichloro-4-(4-phenyl-1H-imidazol-1-yl)benzamido)-3-(3-((R)-2,3-dihydro-1H-inden-1-yl)ureido)propanoic Acid]",1000 to 5000
4,"O=C(NC[C@H](NC(=O)c1c(Cl)cc2c(c1Cl)CCN(Cc1ccc(F)cc1)C2)C(=O)O)N[C@@H]1CCc2ccccc21 [SU15210-0210-01, (S)-2-(5,7-dichloro-2-(4-fluorobenzyl)-1,2,3,4-tetrahydroisoquinoline-6-carboxamido)-3-(3-((R)-2,3-dihydro-1H-inden-1-yl)ureido)propanoic Acid]",1000 to 5000
5,"O=C(NC[C@H](NC(=O)c1c(Cl)cc2c(c1Cl)CCN(C(=O)c1cccc(Cl)c1)C2)C(=O)O)N[C@@H]1CCc2ccccc21 [SU15210-0209-01, (S)-2-(5,7-dichloro-2-(3-chlorobenzoyl)-1,2,3,4-tetrahydroisoquinoline-6-carboxamido)-3-(3-((R)-2,3-dihydro-1H-inden-1-yl)ureido)propanoic Acid]",< 500
6,"O=C(NC[C@H](NC(=O)c1c(Cl)ccc(NCCc2ccccc2)c1Cl)C(=O)O)N[C@@H]1CCc2ccccc21 [SU15210-0097-01, (S)-2-(2,6-dichloro-3-(phenethylamino)benzamido)-3-(3-((R)-2,3-dihydro-1H-inden-1-yl)ureido)propanoic Acid]",1000 to 5000
7,"O=C(NC[C@H](NC(=O)c1c(Cl)cc2c(c1Cl)CCN(C(=O)c1ccc(Cl)cc1)C2)C(=O)O)N[C@@H]1CCc2ccccc21 [SU15210-0208-01, (S)-2-(5,7-dichloro-2-(4-chlorobenzoyl)-1,2,3,4-tetrahydroisoquinoline-6-carboxamido)-3-(3-((R)-2,3-dihydro-1H-inden-1-yl)ureido)propanoic Acid]",< 500
8,"O=C(NC[C@H](NC(=O)c1c(Cl)cc2c(c1Cl)CCN(S(=O)(=O)c1ccccc1)C2)C(=O)O)N[C@@H]1CCc2ccccc21 [SU15210-0214-01, (S)-2-(5,7-dichloro-2-(phenylsulfonyl)-1,2,3,4-tetrahydroisoquinoline-6-carboxamido)-3-(3-((R)-2,3-dihydro-1H-inden-1-yl)ureido)propanoic Acid]",1000 to 5000
9,"O=C(NC[C@H](NC(=O)c1c(Cl)cc(C(=O)N2CCc3ccccc3C2)cc1Cl)C(=O)O)N[C@@H]1CCc2ccccc21 [SU15210-0227-01, (S)-2-(2,6-dichloro-4-(1,2,3,4-tetrahydroisoquinoline-2-carbonyl)benzamido)-3-(3-((R)-2,3-dihydro-1H-inden-1-yl)ureido)propanoic Acid]",500 to 1000
10,"Cc1ccc(CC(=O)Nc2ccc(Cl)c(C(=O)N[C@@H](CNC(=O)N[C@@H]3CCc4ccccc43)C(=O)O)c2Cl)cc1Cl [SU15210-0154-01, (S)-2-(2,6-dichloro-3-(2-(3-chloro-4-methylphenyl)acetamido)benzamido)-3-(3-((R)-2,3-dihydro-1H-inden-1-yl)ureido)propanoic Acid]",1000 to 5000
11,"O=C(NC[C@H](NC(=O)c1c(Cl)cc2c(c1Cl)CCN(Cc1ccccc1)C2=O)C(=O)O)N[C@@H]1CCc2ccccc21 [SU15210-0211-01, (S)-2-(2-benzyl-5,7-dichloro-1-oxo-1,2,3,4-tetrahydroisoquinoline-6-carboxamido)-3-(3-((R)-2,3-dihydro-1H-inden-1-yl)ureido)propanoic Acid]",< 500
12,CC(=O)N1CCc2c(cc(Cl)c(C(=O)N[C@@H](CNC(=O)N[C@@H]3CCc4ccccc43)C(=O)O)c2Cl)C1 [SU15210-0174-01],1000 to 5000
13,"O=C(NC[C@H](NC(=O)c1c(Cl)cc(COCc2ccccc2)cc1Cl)C(=O)O)N[C@@H]1CCc2ccccc21 [SU15210-0189-01, (S)-2-(4-(benzyloxymethyl)-2,6-dichlorobenzamido)-3-(3-((R)-2,3-dihydro-1H-inden-1-yl)ureido)propanoic Acid]",500 to 1000

# The remaining lines, values ahead:
row,IC50 [nM],SMILES
1,> 5000,O=C(NC[C@H](NC(=O)c1c(Cl)cc(N2CC(c3ccccc3)C2)cc1Cl)C(=O)O)N[C@@H]1CCc2ccccc21 [SU15210-0190-01]
2,< 500,"CN(Cc1ccccc1)C(=O)NC[C@H](NC(=O)c1c(Cl)cc(C(=O)NCc2cccc(Cl)c2)cc1Cl)C(=O)O [SU15210-0223-01, (S)-3-(3-benzyl-3-methylureido)-2-(2,6-dichloro-4-(3-chlorobenzylcarbamoyl)benzamido)propanoic Acid]"
3,500 to 1000,"CC(C)c1cccc(Nc2ccc(Cl)c(C(=O)N[C@@H](CNC(=O)N[C@@H]3CCc4ccccc43)C(=O)O)c2Cl)c1 [SU15210-0078-01, (S)-2-(2,6-dichloro-3-(3-isopropylphenylamino)benzamido)-3-(3-((R)-2,3-dihydro-1H-inden-1-yl)ureido)propanoic Acid]"
4,< 500,"C[C@@H](NC(=O)c1cc(Cl)c(C(=O)N[C@@H](CNC(=O)N[C@@H]2CCc3ccccc32)C(=O)O)c(Cl)c1)c1ccccc1 [SU15210-0225-01, (S)-2-(2,6-dichloro-4-((R)-1-phenylethylcarbamoyl)benzamido)-3-(3-((R)-2,3-dihydro-1H-inden-1-yl)ureido)propanoic Acid]"
5,1000 to 5000,"O=C(NC[C@H](NC(=O)c1c(Cl)cc(OCCc2ccccc2)cc1Cl)C(=O)O)N[C@@H]1CCc2ccccc21 [SU15210-0188-01, (S)-2-(2,6-dichloro-4-phenethoxybenzamido)-3-(3-((R)-2,3-dihydro-1H-inden-1-yl)ureido)propanoic Acid]"
6,< 500,"CC1(C)CCC(NC(=O)NC[C@H](NC(=O)c2c(Cl)cc(C(=O)NCc3cccc(O)c3)cc2Cl)C(=O)O)c2ccccc21 (stereo partly drawn) [SU15210-0187-01, (2S)-2-(2,6-dichloro-4-(3-hydroxybenzylcarbamoyl)benzamido)-3-(3-(4,4-dimethyl-1,2,3,4-tetrahydronaphthalen-1-yl)ureido)propanoic Acid]"
7,1000 to 5000,"O=C(NC[C@H](NC(=O)c1c(Cl)cc(C(=O)N2Cc3ccccc3C2)cc1Cl)C(=O)O)N[C@@H]1CCc2ccccc21 [SU15210-0228-01, (S)-2-(2,6-dichloro-4-(isoindoline-2-carbonyl)benzamido)-3-(3-((R)-2,3-dihydro-1H-inden-1-yl)ureido)propanoic Acid]"
8,1000 to 5000,"O=C(NC[C@H](NC(=O)c1c(Cl)ccc(N2CC(c3ccc(Cl)cc3)C2)c1Cl)C(=O)O)N[C@@H]1CCc2ccccc21 [SU15210-0163-01, (S)-2-(2,6-dichloro-3-(3-(4-chlorophenyl)azetidin-1-yl)benzamido)-3-(3-((R)-2,3-dihydro-1H-inden-1-yl)ureido)propanoic Acid]"
